The values that follow come from patent publication US20120122870A1, “Treatment Of Ischemia-Reperfusion Injury” (MUSC FOUNDATION FOR RESEARCH DEVELOPMENT, priority 2009, published 2012).

As usually defined, the inhibition is the change of the read-out against control, counted positive when it falls. Usually IC50 stands for the point on the concentration scale where inhibition reaches its midpoint. High values mean weaker potency, low ones greater potency.

One experiment addresses T1, recombinant human SK (Homo sapiens, UniProt Q9NYA1).
T1 construct: GST (glutathione-S-transferase) (N); made in house; host or cells: bacteria (pGEX bacterial expression vector)
As to the kind of experiment: Recombinant human SK activity assay ([3H]sphingosine to [3H]S1P). Format: biochemical. The conditions noted are these: Human SK incubated with 6 μg/mL of compound; percentage of SK activity inhibited.

In experiment [1] the test system is endogenous SK activity in MDA-MB-231 cells. The experiment is described as follows: Cellular S1P production (endogenous SK activity) in MDA-MB-231 cells. The format is cell-based. The conditions noted are these: for inhibition at 20 µg/mL / IC50: Homo sapiens; for inhibition at 20 µg/mL: MDA-MB-231, MDA-MB-231 cells incubated with 20 μg/mL of compound; for inhibition at 20 µg/mL / Cellular S1P (% inhibition): percentage of S1P production inhibited; for IC50: MDA-MB-231 cells, varying concentrations, concentration inhibiting S1P production by 50%; for Cellular S1P (% inhibition): MDA-MB-231 cells incubated with 20 μg/mL of compound. In short, it runs like this:
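MDA-MB-231 cells treated with 20 μg/mL compound and assayed for endogenous SK activity, reported as % inhibition of S1P production. For IC50, cells received varying compound concentrations and S1P produced was measured; IC50 is the concentration giving 50% inhibition.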

T1 sequence (Q9NYA1 whole entry): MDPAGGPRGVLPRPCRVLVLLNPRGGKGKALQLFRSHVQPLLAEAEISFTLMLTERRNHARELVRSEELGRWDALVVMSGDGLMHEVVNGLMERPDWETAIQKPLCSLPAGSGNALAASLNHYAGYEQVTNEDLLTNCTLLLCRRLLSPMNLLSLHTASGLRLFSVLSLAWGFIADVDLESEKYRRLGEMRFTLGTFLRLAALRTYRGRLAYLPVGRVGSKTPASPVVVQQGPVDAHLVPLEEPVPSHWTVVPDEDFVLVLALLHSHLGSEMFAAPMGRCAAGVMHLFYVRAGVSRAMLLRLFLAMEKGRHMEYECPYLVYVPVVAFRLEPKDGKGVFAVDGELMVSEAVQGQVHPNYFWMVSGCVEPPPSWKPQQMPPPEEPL

Turning to `Clc1ccc(C23CC4CC(CC(CNCCN5CCOCC5)(C4)C2)C3)cc1` [A87, [3-(4-Chloro-phenyl)-adamantan-1-ylmethyl]-(2-morpholin-4-yl-ethyl)-amine], the inhibition at 6 µg/mL on recombinant human SK is 75%. In experiment [1], this compound yielded an inhibition at 20 µg/mL of 55% and an IC50 of 64 µM.
`CCn1c2ccccc2c2cc(NCC34CC5CC(C3)CC(c3ccc(Cl)cc3)(C5)C4)ccc21` [A89, [3-(4-Chloro-phenyl)-admantan-1-ylmethyl]-(9-ethyl-9H-carbazol-3-yl)-amine]: the “Recombinant SK (% inhibition)” value on recombinant human SK came out at 37%. Besides, the “Cellular S1P (% inhibition)” value in experiment [1] is listed as 1%.
With `Clc1ccc(-c2cnc(NCC34CC5CC(C3)CC(c3ccc(Cl)cc3)(C5)C4)s2)cc1` [A90, [3-(4-Chloro-phenyl)-adamantan-1-ylmethyl]-[5-(4-chloro-phenyl)-thiazol-2-yl]-amine], the inhibition at 6 µg/mL on recombinant human SK was found to be 26%. 20 µg/mL produced 16% inhibition in experiment [1].
As to `CCn1c2ccccc2c2cc(NC(C)C34CC5CC(CC(c6ccc(Cl)cc6)(C5)C3)C4)ccc21` (centres unmarked) [A114, {1-[3-(4-Chloro-phenyl)-adamantan-1-yl]-ethyl}-(9-ethyl-9H-carbazol-3-yl)-amine], the inhibition at 6 µg/mL on recombinant human SK stood at 33%. In experiment [1], at 20 µg/mL the inhibition was 46% and the IC50 was 51 µM.
With `CC(NC(=O)Nc1ccc(Cl)c(C(F)(F)F)c1)C12CC3CC(CC(c4ccc(Cl)cc4)(C3)C1)C2` (centres unmarked) [A118, 1-{1-[3-(4-Chloro-phenyl)-adamantan-1-yl]-ethyl}-3-(4-chloro-3-trifluoromethyl-phenyl)-urea], the inhibition at 6 µg/mL on recombinant human SK stood at 77%. Also, testing at 20 µg/mL in experiment [1] gave an inhibition of 5%.
As to `CCCCCCCCCCCCCCCC(=O)Nc1nc(-c2ccc(Cl)cc2)cs1` [B3, Hexadecanoic acid [4-(4-chloro-phnyl)-thiazol-2-yl]-amide], at recombinant human SK, the “Recombinant SK (% inhibition)” value came out at 88%. The “Cellular S1P (% inhibition)” value in experiment [1] is given as 34%.
